Our source for the ED50 and IC50 values is patent US5736556A, “Tropane-2-aldoxime derivatives as nevro transmitter reuptake inhibitors” (NeuroSearch A/S, priority 1994, dated 1998).

Structures can show the parent of a compound that is named as a salt.

Assay [1] has as its target dopamine transporter (Mus musculus, UniProt Q61327). Kind of assay: In vivo inhibition of ^3 H-WIN 35428 binding (striatum). Set-up: from tissue; host or cells: striatum of living female NMRI mice; species or system mice (female NMRI). To be noted: ip, mice, inhibition of specific ^3 H-WIN 35428 binding in striatum. How it is done:
All test substances used are solutions or suspensions prepared in 10% TWEEN 80. Groups of three female NMRI mice (25 g) are injected i.p. with the test substance. […] Tissues are weighed and dissolved for 36 h with 1 ml 2% sodium-laurylsulfat. The solubilized tissue is then added 2 ml of scintillation cocktail, and the amount of radioactivity per mg of tissue is counted by conventional liquid scintillation counting. Groups of untreated mice serves as controls.
The ED50 value is determined from dose response curves.
ED50 =(administered dose, mg/kg)×1/(C0 /Cx -1), where C0 is specific binding in controls and Cx is the specific binding in mice treated with test substance.

For assay [2], the target named is T1, ^3 H-5-HT (serotonin) uptake (serotonin transporter) (Rattus norvegicus, UniProt P31652).
T1 construct: Cerebral cortices from male Wistar rats (150-200 g) are homogenized; from tissue; host or cells: P2 synaptosomes of cerebral cortex, male Wistar rats
Kind of assay: In vitro inhibition of ^3 H-5-hydroxytryptamine (^3 H-5-HT, serotonin) uptake in cortical synaptosomes. It is filed as biochemical, rat (male Wistar). To be noted: ^3 H-5-HT 1 nM, 30 min at 37° C. From the text:
The compounds of the invention have also been tested for their ability to inhibit reuptake of dopamine(DA) noradrenalin(NA) and serotonin(5-HT) in synaptosomes.
Specific neurotransmitter transporters/uptake sites on nerve terminals presumably function to terminate neuronal signaling by removing the neurotransmitters dopamine, noradrenaline and serotonin, respectively, from the synaptic cleft. The activity of the transporter integral proteins can be measured in vitro by synaptosomal uptake of ^3 H-dopamine, ^3 H-noradrenaline and ^3 H-serotonine, respectively.
In vitro inhibition of ^3 H-5-hydroxytryptamine ^3 H-5-HT, serotonin) uptake in cortical synaptosomes
Tissue preparation: Preparations are performed at 0°-4° C. unless otherwise indicated. Cerebral cortices from male Wistar rats (150-200 g) are homogenized for 5-10 sec in 100 volumes of ice-cold 0.32M sucrose containing 1 mM pargyline using an Ultra-Turrax homogenizer. […]
Assay: Aliquots of 4.0 ml tissue suspension are added to 100 μl of test solution and 100 μl of ^3 H-5-HT (1 nM, final concentration), mixed and incubated for 30 min at 37° C. Non-specific uptake is determined using citalopram (1 μM, final concentration). […] The amount of radioactivity on the filters is determined by conventional liquid scintillation counting. Specific uptake is calculated as the difference between total uptake and non-specific uptake. […]

In assay [3] the test system is immobility time of mice suspended by the tail. Kind of assay: Tail Suspension. It is filed as in vivo, mice (female NMRI). The note with it: Mus musculus, 0.5 h, oral, 30 min before test, dose reducing the immobility to 100 sec. How it is done: A decrease in the immobility time by mice suspended in their tail is seen after systemic administration of central stimulants and by antidepressants (Steru, L., Chermat, R., Thierry, B. & Simon, P. (1985) The tail suspension test: A new method for screening antidepressants in mice. Psychopharmacology 85:367-370.).
Female NMRI mice (20-25 g) habituated to the room (12 hours light/dark) for at least 16 hours and housed 25 per cage are used. The mice are suspended by the tail with adhesive tape to a rod 30 cm above the lab. bench 30 min after an oral administation of vehicle or drug. For the next 6 min the accumulated duration of immobility defined as no movements by the body or extremities (however head movements are not defined as movements) are noted, Six mice per dose are used.
Saline or vehicle treated mice have immobility time scores between 160-180 sec in average. An ED50 -value is calculated by graphical interpolation from at least 3 doses as the dose reducing the immobility to 100 sec.

Assay [4] deals with T2, dopamine transporter (Rattus norvegicus, UniProt P23977).
T2 construct: Corpus striatum from male Wistar rats (150-200 g) is homogenized; from tissue; host or cells: corpus striatum of male Wistar rats
The experiment in a line: In vitro inhibition of ^3 H-WIN 35428 binding (corpus striatum). To be noted: rat corpus striatum, ^3 H-WIN 35428 1 nM, 60 min at 2° C.; read-out: in vitro IC50. Set-up: species or system rat (male Wistar). The text has this:
The compounds of the present invention have been tested for their ability to bind to the dopamine transporter in the following tests for in vitro and in vivo inhibition of ^3 H-WIN 35428.
In vitro inhibition of ^3 H-WIN 35428 binding
Dopamine transporters/uptake sites on nerve terminals presumably function to terminate neuronal signaling by removing dopamine from the synaptic cleft. The activity or presence of the dopamine transporter integral protein can be measured in vitro with synaptosomal uptake of ^3 H-dopamine or membrane binding assays with ^3 H-ligands known to bind to the transporter.
Numerous ligands of several structural types have been reported to bind at the dopamine uptake site, but it remains questionable whether their binding sites are identical to that of cocaine.
Tissue preparation: Preparations are performed at 0°-4° C. unless otherwise indicated. Corpus striatum from male Wistar rats (150-200 g) is homogenized for 5-10 sec in 10 ml NaH2 PO4 (50 mM, pH 7.4) using an Ultra-Turrax homogenizer. The suspension is centrifuged at 27,000×g for 15 min. The supernatant is discarded and the pellet is resuspended in 50 mM NaH2 PO4, pH 7.4 (1000 ml per g of original tissue) and used for binding assays.
Assay: Aliquots of 0.5 ml tissue are added to […] of ^3 H-WIN 35428 (1 nM, final concentration), mixed and incubated for 60 min at 2° C. Non-specific binding is determined using cocaine ([…], final concentration). After incubation the samples are added 5 ml of ice-cold buffer and poured directly onto Whatman GF/C glass fibre filters under suction and immediately washed with 5 ml ice-cold buffer. The amount of radioactivity on the filters is determined by conventional liquid scintillation counting. Specific binding is total binding minus non-specific binding.
25-75% inhibition of specific binding must be obtained, before calculation of an IC50. The test value is given as IC50 (the concentration (μM) of the test substance which inhibits the specific binding of ^3 H-WIN 35428 by 50%).

T2 sequence (P23977 whole entry): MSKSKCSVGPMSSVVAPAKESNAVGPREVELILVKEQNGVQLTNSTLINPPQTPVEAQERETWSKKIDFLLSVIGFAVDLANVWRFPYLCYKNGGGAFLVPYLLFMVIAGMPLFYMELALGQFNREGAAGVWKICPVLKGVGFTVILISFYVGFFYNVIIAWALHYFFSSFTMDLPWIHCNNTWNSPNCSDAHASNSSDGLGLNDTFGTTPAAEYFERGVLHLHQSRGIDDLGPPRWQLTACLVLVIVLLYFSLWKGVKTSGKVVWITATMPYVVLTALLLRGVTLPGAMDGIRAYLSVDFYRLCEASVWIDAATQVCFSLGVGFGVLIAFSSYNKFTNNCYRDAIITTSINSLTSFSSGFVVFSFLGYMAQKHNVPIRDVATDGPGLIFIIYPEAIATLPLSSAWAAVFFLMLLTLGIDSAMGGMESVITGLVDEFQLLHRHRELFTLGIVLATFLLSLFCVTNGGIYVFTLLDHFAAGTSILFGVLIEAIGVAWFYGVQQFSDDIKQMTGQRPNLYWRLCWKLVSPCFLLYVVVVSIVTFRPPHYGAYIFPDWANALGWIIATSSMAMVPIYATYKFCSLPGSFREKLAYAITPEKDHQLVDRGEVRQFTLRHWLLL
dopamine transporter (Mus musculus, UniProt Q61327), sequence (Q61327 whole entry): as the sequence (P23977 whole entry) above, with S21P, A57V, A194S, H600R, L619V counted along it
T1 sequence (P31652 whole entry): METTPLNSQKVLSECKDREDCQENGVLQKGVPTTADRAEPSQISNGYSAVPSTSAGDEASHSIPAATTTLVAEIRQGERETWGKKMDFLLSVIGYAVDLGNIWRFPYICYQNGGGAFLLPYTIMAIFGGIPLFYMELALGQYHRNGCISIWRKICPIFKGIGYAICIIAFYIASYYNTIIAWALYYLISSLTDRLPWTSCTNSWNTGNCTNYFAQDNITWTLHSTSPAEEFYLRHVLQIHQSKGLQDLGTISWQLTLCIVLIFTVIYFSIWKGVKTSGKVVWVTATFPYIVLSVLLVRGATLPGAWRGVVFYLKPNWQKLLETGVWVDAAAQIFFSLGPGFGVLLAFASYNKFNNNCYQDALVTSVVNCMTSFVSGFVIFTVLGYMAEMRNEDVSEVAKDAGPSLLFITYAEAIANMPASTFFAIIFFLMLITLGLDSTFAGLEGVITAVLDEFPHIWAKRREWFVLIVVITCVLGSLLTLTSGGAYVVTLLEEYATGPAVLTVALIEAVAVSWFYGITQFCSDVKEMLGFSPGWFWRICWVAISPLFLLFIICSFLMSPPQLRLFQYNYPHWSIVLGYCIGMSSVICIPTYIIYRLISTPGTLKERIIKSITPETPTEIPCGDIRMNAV

In general, ED50 refers to the dose at which the effect has come halfway, by size or by number of responders. A word on the IC50: it is the midpoint of a concentration-inhibition curve. For the compound `CON=C[C@@H]1[C@@H](c2ccc(Cl)c(Cl)c2)C[C@@H]2CC[C@H]1N2` [(1R,2R,3S)-N-Normethyl-3-(3,4-dichlorophenyl)tropane-2-O-methyl-aldoxime, hydrochloride], the figures for the 50% effective dose (ED50) (at dopamine transporter [1]; in assay [3]) were 1.4 mg/kg and 0.95 mg/kg, respectively. The IC50 was 1.7 nM in assay [2] and 6 nM at dopamine transporter [4].

In the case of `CON=C[C@@H]1[C@@H](c2ccc(Cl)c(Cl)c2)C[C@@H]2CC[C@H]1N2C` [(1R,2R,3S)-3-(3,4-dichlorophenyl)-tropane-2-O-methyl-aldoxime, H2 SO4], the ED50 at dopamine transporter [1] was 0.9 mg/kg; in assay [3], 0.1 mg/kg. Moreover, the concentration for half-maximal inhibition (IC50) in assay [2] is 13 nM; on dopamine transporter [4], 3 nM.
